This is an account of results in patent publication US20160030561A1, “Methods of Treating Pancreatic Cancer” (ONCOMED PHARMACEUTICALS, INC., priority 2013, published 2016).

The test system of one test is T-ALL. As to conditions: T-ALL animal model; cited from earlier work.
For another test, the system named is medulloblastoma. The settings on record: cited from earlier work.
Test [1] relates to Ras-transformed fibroblasts. As to conditions: cited from earlier work.
Test [2] has as its system tumor cell lines that overexpressed NOTCH3. As to conditions: tumor cell lines that overexpressed NOTCH3, not those with minimal NOTCH3 expression; cited from earlier work.
Test [3] has as its system melanoma and Kaposi sarcoma. As to conditions: cell lines and/or xenografts in mice from melanoma and Kaposi sarcoma; cited from earlier work.
The test system of test [4] is pancreatic tumors with high NOTCH3 gene expression. The experiment in a line: In vivo xenograft assay, panel of pancreatic tumors with high NOTCH3 gene expression. Further details: species or system NOD-SCID mice. The settings on record: treatment with OMP-59R5 and gemcitabine; NOTCH3 cut-off value of 500. On the procedure:
(§1) 20,000 OMP-PN8 tumor cells were injected into NOD-SCID mice. Tumors were allowed to grow 22 days until they had reached an average volume of 125 mm^3. […] Antibodies were dosed every other week at 40 mg/kg. Gemcitabine was dosed at 20 mg/kg weekly.

Test [5] relates to OMP-PN17 pancreatic tumor. The experiment in a line: In vivo xenograft assay, OMP-PN17 pancreatic tumor. The settings on record: FIG. 1B. The arrangement: species or system NOD-SCID mice. As for the experimental part:
as §1
The ability of anti-NOTCH2/3 OMP-59R5 antibody to inhibit the in vivo growth of OMP-PN17 pancreatic tumor was determined using substantially identical methods.

The test system of test [6] is UM-PE13 breast (NOTCH3 high expressing) tumor cells. The experiment in a line: In vivo xenograft assay, UM-PE13 breast tumor. Further details: species or system NOD-SCID mice. The settings on record: FIG. 1D. On the procedure: (§2) Antibodies were dosed weekly at 20 mg/kg. Taxol was dosed at 10 mg/kg weekly.
The test system of test [7] is OMP-Lu53 lung (NOTCH3 high expressing) tumor cells. The experiment in a line: In vivo xenograft assay, OMP-Lu53 lung tumor. Further details: species or system NOD-SCID mice. As to conditions: in combination with taxol; antibody 40 mg/kg every other week, taxol 10 mg/kg weekly; FIG. 1G. As for the experimental part:
Antibodies were dosed every other week at 40 mg/kg. Taxol was dosed at 10 mg/kg weekly.

In another test the test system is OMP-PN11 tumor cells. The experiment in a line: In vivo xenograft assay, OMP-PN11 pancreatic tumor. Further details: species or system NOD-SCID mice. The settings on record: FIG. 1C. As for the experimental part:
50,000 OMP-PN11 tumor cells were injected into NOD-SCID mice. Tumors were allowed to grow 21 days until they had reached an average volume of 120 mm^3. […] Antibodies were dosed every other week at 40 mg/kg. Gemcitabine was dosed at 20 mg/kg weekly.

For test [8], the system named is breast or lung tumors with high NOTCH3 gene expression. The experiment in a line: In vivo xenograft assay, panel of breast or lung tumors with high NOTCH3 gene expression. The arrangement: species or system NOD-SCID mice. As to conditions: OMP-59R5 in combination with a chemotherapeutic agent (taxol); NOTCH3 cut-off value of 500. As for the experimental part:
as §2

Test [9] deals with UM-T1 breast (NOTCH3 high expressing) tumor cells. The experiment in a line: In vivo xenograft assay, UM-T1 breast tumor. Further details: species or system NOD-SCID mice. The settings on record: FIG. 1E. As for the experimental part: Tumors were allowed to grow 28 days until they had reached an average volume of 120 mm^3. […] Antibodies were dosed weekly at 20 mg/kg. Taxol was dosed at 10 mg/kg weekly.

The test system of test [10] is OMP-Lu40 lung (NOTCH3 low expressing) tumor cells. The experiment in a line: In vivo xenograft assay, OMP-Lu40 lung tumor. Further details: species or system NOD-SCID mice. The settings on record: in combination with taxol; antibody 20 mg/kg weekly, taxol 10 mg/kg weekly; FIG. 1F. As for the experimental part:
as §2

The subject of the next test is OMP-PN8 tumor cells. The experiment in a line: In vivo xenograft assay, OMP-PN8 pancreatic tumor. Further details: species or system NOD-SCID mice. On the procedure: as §1
Tumors were allowed to grow 26 days until they had reached an average volume of 110 mm^3. Tumor bearing mice were randomized into 3 groups (n=9 mice per group) and treated with control antibody, gemcitabine, plus ABRAXANE™ (albumin bound paclitaxel), or the combination of OMP-59R5 anti-NOTCH2/3 antibody and gemcitabine plus ABRAXANE™ OMP-59R5 was dosed every other week at 40 mg/kg. Gemcitabine was dosed at 10 mg/kg weekly and ABRAXANE™ at 30 mg/kg weekly. […] The top and bottom graphs show data obtained from the same experiment on different scales.

A further test concerns intestinal adenomas. As to conditions: intestinal adenomas in Apc−/− (min) mice; cited from earlier work.
[11] abbreviates: as a single agent, 20 mg/kg weekly.
Setting [12] is: in combination with taxol, antibody 20 mg/kg weekly, taxol 10 mg/kg weekly.

Entries after “also recorded” stand apart in the source; their conditions may differ. Where a SMILES comes first, the peptide text is derived from it. [ ]: non-standard residue; d: D form. The star is where a group is joined. Nle = CCCC[C@H](N)C(=O)O; Cbz = O=C(OCc1ccccc1)*

Take `C[C@H](NC(=O)Cc1cc(F)cc(F)c1)C(=O)N[C@H](C(=O)OC(C)(C)C)c1ccccc1` [DAPT, N-[N-(3,5-difluorophenacetyl)-L-alanyl]-S-phenylglycine t-butyl ester]: the “Cell cycle arrest and apoptosis” value with T-ALL was “induced G0-G1 cell cycle arrest and apoptosis”. Also, the Medulloblastoma growth entry in the test on medulloblastoma is on record as “marked reduction”.

Consider `CCC(C)C(NC(=O)OCc1ccccc1)C(=O)NC(C=O)CC(C)C` (stereo not drawn) [IL-X, cbz-IL-CHO] (Cbz-Ile-Leu-aldehyde; configuration not given here), for which the Antineoplastic activity result in test [1] is given as “NOTCH1-dependent antineoplastic activity”.

Take `CCCC[C@@H](C=O)NC(=O)[C@H](CC(C)C)NC(=O)[C@H](CC(C)C)NC(=O)OCc1ccccc1` [z-Leu-leu-Nle-CHO] (Cbz-Leu-Leu-[Nle]-aldehyde): the “Cell proliferation and apoptosis” value in test [2] is “suppression of cell proliferation and induction of apoptosis”. Moreover, in test [3], the Tumor growth entry is reported as “suppress tumor growth”.

For “OMP-59R5 + gemcitabine: combination treatment with OMP-59R5 anti-NOTCH2/3 antibody and gemcitabine”, the “Pancreatic tumors with high NOTCH3 gene expression responsive in vivo” value in [4] was 9 out of the 10.

For the molecule “OMP-59R5: 59R5 IgG2 anti-NOTCH2/3 antibody, heavy and light chain of SEQ ID NO:30 and SEQ ID NO:33; ATCC PTA-10170”, the OMP-PN17 tumor growth entry in [5] (as a single agent) and in test [5] (in combination with gemcitabine) was “strongly inhibited” throughout. The UM-PE13 tumor growth entry in test [6] (setting [11]) and in [6] (setting [12]) was “strongly inhibited” each time. The OMP-Lu53 tumor growth entry in test [7] is on record as “no effect”. Also, the OMP-PN11 tumor growth result is reported as “no effect” in the test with OMP-PN11 tumor cells (as a single agent, 40 mg/kg every other week) and “no effect” in the test on OMP-PN11 tumor cells (in combination with gemcitabine, antibody 40 mg/kg every other week, gemcitabine 20 mg/kg weekly). Moreover, the “Breast or lung tumors with high NOTCH3 gene expression responsive” value in test [8] is listed as 5 out of 14. Also, the UM-T1 tumor growth result in test [9] (setting [11]) and in test [9] (setting [12]) was “no effect” throughout. Besides, the OMP-Lu40 tumor growth result in test [10] is “strongly inhibited”. The OMP-PN8 tumor growth result is reported as “strongly inhibited” in the test on OMP-PN8 tumor cells (as a single agent, 40 mg/kg every other week, FIG. 1A); “strongly inhibited; also recorded: active” with OMP-PN8 tumor cells (in combination with gemcitabine plus ABRAXANE, OMP-59R5 40 mg/kg every other week, gemcitabine 10 mg/kg weekly, ABRAXANE 30 mg/kg weekly, FIG. 9); “strongly inhibited” with OMP-PN8 tumor cells (in combination with gemcitabine, antibody 40 mg/kg every other week, gemcitabine 20 mg/kg weekly, FIG. 1A). For the same molecule, in the test with OMP-PN8 tumor cells (in combination with gemcitabine plus ABRAXANE, FIG. 9), the “Activity on OMP-PN8 tumor growth compared with gemcitabine plus ABRAXANE alone” value is given as “more active”.

dibenzazepine: in the test on intestinal adenomas, the “Epithelial cell proliferation and goblet cell differentiation” value is “inhibit epithelial cell proliferation and induce goblet cell differentiation”.
